Test systems include SF-268 CNS; TK-10 renal; SF-539 CNS; BT-549 breast; NCI-H23 lung; MOLT-4 leukemia; SK-MEL-5 melanoma; RXF 393 renal; SR leukemia; OVCAR-3 ovarian.
Common to all, as to experiment: NCI-60 cell line screen, 48 h

Molecules are shown by their SMILES.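 Each compound was tested at five concentrations against cells in 96-well plates for 48 hours. Definition used: TGI = concentration required for complete inhibition of growth.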

Take `CO/N=C(\C([O-])=N\[n+]1cnn(CC(=O)OC(C)(C)C)c1)c1csc(NC(c2ccccc2)(c2ccccc2)c2ccccc2)n1`: the TGI with SF-268 CNS, in the assay with TK-10 renal, in the assay on SF-539 CNS, with BT-549 breast, in the assay with NCI-H23 lung and with MOLT-4 leukemia was more than 10 µM in each case. In addition, the TGI with SK-MEL-5 melanoma, in the assay on RXF 393 renal, with SR leukemia and in the assay with OVCAR-3 ovarian was more than 10 µM throughout.
Consider `CCN(CC)c1ccc(/C=C2\CCc3ccc([N+](=O)[O-])cc3C2=O)cc1`, for which the TGI in the assay with SF-268 CNS was more than 100 µM; in the assay with TK-10 renal, more than 100 µM; in the assay with SF-539 CNS, 7.09 µM; in the assay on BT-549 breast, more than 100 µM; in the assay on NCI-H23 lung it was more than 100 µM; in the assay on MOLT-4 leukemia, more than 100 µM. Also, the TGI with SK-MEL-5 melanoma was more than 100 µM; in the assay on RXF 393 renal, more than 29.9 µM; with SR leukemia, more than 100 µM; with OVCAR-3 ovarian it was 56.9 µM.
